Source: patent US20180327402A1, “TRIAZOLOPYRIDINE COMPOUNDS AND METHODS OF USE THEREOF” (Genentech, Inc., priority 2015, published 2018)

Assays:
[1] = molecular target: T1, isolated recombinant JAK1 kinase domain (Homo sapiens, UniProt P23458); test: JAK enzyme assay (Caliper LabChip), JAK1; format: biochemical; settings: 1.5 nM JAK1, ATP 25 μM, 22° C., 30 minutes; Morrison tight binding model
T1 construct: isolated recombinant JAK1 and JAK2 kinase domain
Experimental: (§1) The activity of the isolated recombinant JAK1 and JAK2 kinase domain was measured by monitoring phosphorylation of a peptide derived from JAK3 (Val-Ala-Leu-Val-Asp-Gly-Tyr-Phe-Arg-Leu-Thr-Thr, fluorescently labeled on the N-terminus with 5-carboxyfluorescein) using the Caliper LabChip® technology (Caliper Life Sciences, Hopkinton, Mass.). To determine inhibition constants (Ki), compounds were diluted serially in DMSO and added to 50 μL kinase reactions containing purified enzyme (1.5 nM JAK1, or 0.2 nM JAK2), 100 mM HEPES buffer (pH 7.2), 0.015% Brij-35, 1.5 μM peptide substrate, ATP (25 μM), 10 mM MgCl2, 4 mM DTT at a final DMSO concentration of 2%. Reactions were incubated at 22° C. in 384-well polypropylene microtiter plates for 30 minutes and then stopped by addition of 25 μL of an EDTA containing solution (100 mM HEPES buffer (pH 7.2), 0.015% Brij-35, 150 mM EDTA), resulting in a final EDTA concentration of 50 mM. After termination of the kinase reaction, the proportion of phosphorylated product was determined as a fraction of total peptide substrate using the Caliper LabChip® 3000 according to the manufacturer's specifications. Ki values were then determined using the Morrison tight binding model (Morrison, J. F., Biochim. Biophys. Acta. 185:269-296 (1969); William, J. W. and Morrison, J. F., Meth. Enzymol., 63:437-467 (1979)) modified for ATP-competitive inhibition [Ki ═Ki,app/(1+[ATP]/Km,app)].

[2] = molecular target: T2, isolated recombinant JAK2 kinase domain (Homo sapiens, UniProt O60674); test: JAK enzyme assay (Caliper LabChip), JAK2; format: biochemical; settings: 0.2 nM JAK2, ATP 25 μM, 22° C., 30 minutes; Morrison tight binding model
T2 construct: isolated recombinant JAK1 and JAK2 kinase domain
Experimental: as §1

T2 sequence (O60674 849-1124 limits assumed): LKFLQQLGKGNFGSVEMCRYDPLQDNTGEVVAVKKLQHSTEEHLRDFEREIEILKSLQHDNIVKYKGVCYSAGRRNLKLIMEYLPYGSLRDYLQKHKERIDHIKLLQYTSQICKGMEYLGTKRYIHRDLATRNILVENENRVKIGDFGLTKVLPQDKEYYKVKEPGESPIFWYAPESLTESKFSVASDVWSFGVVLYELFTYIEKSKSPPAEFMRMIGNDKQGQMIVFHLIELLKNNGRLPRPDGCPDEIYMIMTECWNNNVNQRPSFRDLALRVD
T1 sequence (P23458 875-1153 limits assumed): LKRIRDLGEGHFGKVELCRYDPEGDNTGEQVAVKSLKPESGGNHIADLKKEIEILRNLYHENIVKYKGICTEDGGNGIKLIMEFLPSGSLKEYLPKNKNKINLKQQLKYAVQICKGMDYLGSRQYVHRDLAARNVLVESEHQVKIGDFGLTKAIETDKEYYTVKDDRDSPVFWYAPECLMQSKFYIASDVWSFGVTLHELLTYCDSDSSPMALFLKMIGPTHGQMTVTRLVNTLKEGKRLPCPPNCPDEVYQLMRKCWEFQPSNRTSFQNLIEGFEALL

Row | Ki [1] | Ki [2] | SMILES
1 | 0.63 nM | 0.32 nM | COCCOc1ccc(COc2ccc(-c3cccn4nc(Nc5cnn(C)c5)nc34)cc2)cn1 [Compound 3-1, 8-[4-[[6-(2-methoxyethoxy)-3-pyridyl]methoxy]phenyl]-N-(1-methylpyrazol-4-yl)-[1,2,4]triazolo[1,5-a]pyridin-2-amine]
2 | 2.4 nM | 0.86 nM | CNCCn1cc(Nc2nc3c(-c4ccc(OCc5ccc(OCCOC)nc5)cc4)cccn3n2)cn1 [Compound 3-2, 8-[4-[[6-(2-methoxyethoxy)-3-pyridyl]methoxy]phenyl]-N-[1-[2-(methylamino)ethyl]pyrazol-4-yl]-[1,2,4]triazolo[1,5-a]pyridin-2-amine]
3 | 0.82 nM | 0.2 nM | COCCOc1ccc(COc2ccc(-c3cccn4nc(Nc5cnn(C6CCNCC6)c5)nc34)cc2)cn1 [Compound 3-3, 8-[4-[[6-(2-methoxyethoxy)-3-pyridyl]methoxy]phenyl]-N-[1-(4-piperidyl)pyrazol-4-yl]-[1,2,4]triazolo[1,5-a]pyridin-2-amine]
4 | 1.9 nM | 0.48 nM | COCCOc1ccc(COc2ccc(-c3cccn4nc(Nc5cnn(C[C@H]6CCCN6)c5)nc34)cc2)cn1 [Compound 3-4, 8-[4-[[6-(2-methoxyethoxy)-3-pyridyl]methoxy]phenyl]-N-[1-[[(2R)-pyrrolidin-2-yl]methyl]pyrazol-4-yl]-[1,2,4]triazolo[1,5-a]pyridin-2-amine]
5 | 0.74 nM | 0.28 nM | CNCCCn1cc(Nc2nc3c(-c4ccc(OCc5ccc(OCCOC)nc5)cc4)cccn3n2)cn1 [Compound 3-5, 8-[4-[[6-(2-methoxyethoxy)-3-pyridyl]methoxy]phenyl]-N-[1-[3-(methylamino)propyl]pyrazol-4-yl]-[1,2,4]triazolo[1,5-a]pyridin-2-amine]
6 | 0.55 nM | 0.94 nM | Cn1cc(Nc2nc3c(N4CCC(CN)(c5ccc(Cl)cc5)CC4)cccn3n2)cn1 [D, 8-[4-(aminomethyl)-4-(4-chlorophenyl)-1-piperidyl]-N-(1-methylpyrazol-4-yl)-[1,2,4]triazolo[1,5-a]pyridin-2-amine]
7 | 38 nM | 20 nM | COC(=O)CN1CCC2(CC1)CN(C(=O)N1CC=C(c3cccn4nc(Nc5cnn(C)c5)nc34)CC1)C2 [E, methyl 2-[2-[4-[2-[(1-methylpyrazol-4-yl)amino]-[1,2,4]triazolo[1,5-a]pyridin-8-yl]-3,6-dihydro-2H-pyridine-1-carbonyl]-2,7-diazaspiro[3.5]nonan-7-yl]acetate]
8 | 1.4 nM | 0.53 nM | COC(=O)CNCC1(c2ccc(Cl)cc2)CCN(c2cccn3nc(Nc4cnn(C)c4)nc23)CC1 [F, formic acid; methyl 2-[[4-(4-chlorophenyl)-1-[2-[(1-methylpyrazol-4-yl)amino]-[1,2,4]triazolo[1,5-a]pyridin-8-yl]-4-piperidyl]methylamino]]
9 | 10 nM | 2.9 nM | Cn1cc(Nc2nc3c(N4CCC(CNCC(F)(F)F)(c5ccc(Cl)cc5)CC4)cccn3n2)cn1 [G, 8-[4-(4-chlorophenyl)-4-[(2,2,2-trifluoroethylamino)methyl]-1-piperidyl]-N-(1-methylpyrazol-4-yl)-[1,2,4]triazolo[1,5-a]pyridin-2-amine]
10 | 11 nM | 3.5 nM | Cn1cc(Nc2nc3c(N4CCC(CCN5CCOCC5)(c5ccc(Cl)cc5)CC4)cccn3n2)cn1 [H, 8-[4-(4-chlorophenyl)-4-(2-morpholinoethyl)-1-piperidyl]-N-(1-methylpyrazol-4-yl)-[1,2,4]triazolo[1,5-a]pyridin-2-amine]
11 | 190 nM | 86 nM | CN(C)C(=O)CN1CCC2(CC1)CN(C(=O)N1CC=C(c3cccn4nc(Nc5cnn(C)c5)nc34)CC1)C2 [I, N,N-dimethyl-2-[2-[4-[2-[(1-methylpyrazol-4-yl)amino]-[1,2,4]triazolo[1,5-a]pyridin-8-yl]-3,6-dihydro-2H-pyridine-1-carbonyl]-2,7-diazaspiro[3.5]nonan-7-yl]acetamide]
12 | 1.7 nM | 0.47 nM | CSc1ccc(C2(CO)CCN(c3cccn4nc(Nc5cnn(CCN6CCC(N7CCOCC7)CC6)c5)nc34)CC2)cc1 [J, [4-(4-methylsulfanylphenyl)-1-[2-[[1-[2-(4-morpholino-1-piperidyl)ethyl]pyrazol-4-yl]amino]-[1,2,4]triazolo[1,5-a]pyridin-8-yl]-4-piperidyl]methanol]
13 | 2.7 nM | 1.1 nM | CSc1ccc(C2(CC#N)CCN(c3cccn4nc(Nc5cnn(CCN6CCC(N7CCOCC7)CC6)c5)nc34)CC2)cc1 [K, 2-[4-(4-methylsulfanylphenyl)-1-[2-[[1-[2-(4-morpholino-1-piperidyl)ethyl]pyrazol-4-yl]amino]-[1,2,4]triazolo[1,5-a]pyridin-8-yl]-4-piperidyl]acetonitrile]
14 | 2.6 nM | 0.65 nM | CSc1ccc(C2(CC#N)CCN(c3cccn4nc(Nc5cnn(CCN6CCN(C(C)=O)CC6)c5)nc34)CC2)cc1 [L, 2-[1-[2-[[1-[2-(4-acetylpiperazin-1-yl)ethyl]pyrazol-4-yl]amino]-[1,2,4]triazolo[1,5-a]pyridin-8-yl]-4-(4-methylsulfanylphenyl)-4-piperidyl]acetonitrile]
15 | 3.3 nM | 0.96 nM | CSc1ccc(C2(CC#N)CCN(c3cccn4nc(Nc5cnn(CCN6CCN(C7CCOCC7)CC6)c5)nc34)CC2)cc1 [M, 2-[4-(4-methylsulfanylphenyl)-1-[2-[[1-[2-(4-tetrahydropyran-4-ylpiperazin-1-yl)ethyl]pyrazol-4-yl]amino]-[1,2,4]triazolo[1,5-a]pyridin-8-yl]-4-piperidyl]acetonitrile]
16 | 5.1 nM | 1.2 nM | CSc1ccc(C2(CC#N)CCN(c3cccn4nc(Nc5cnn(CCN(C)C)c5)nc34)CC2)cc1 [N, 2-[1-[2-[[1-[2-(dimethylamino)ethyl]pyrazol-4-yl]amino]-[1,2,4]triazolo[1,5-a]pyridin-8-yl]-4-(4-methylsulfanylphenyl)-4-piperidyl]acetonitrile]
17 | 4.6 nM | 1 nM | CSc1ccc(C2(CC#N)CCN(c3cccn4nc(Nc5cnn(CCN6CCN(C)C(=O)C6)c5)nc34)CC2)cc1 [O, 2-[1-[2-[[1-[2-(4-methyl-3-oxo-piperazin-1-yl)ethyl]pyrazol-4-yl]amino]-[1,2,4]triazolo[1,5-a]pyridin-8-yl]-4-(4-methylsulfanylphenyl)-4-piperidyl]acetonitrile]
18 | 2.4 nM | 0.72 nM | CSc1ccc(C2(CC#N)CCN(c3cccn4nc(Nc5cnn(CCNC6COC6)c5)nc34)CC2)cc1 [P, 2-[4-(4-methylsulfanylphenyl)-1-[2-[[1-[2-(oxetan-3-ylamino)ethyl]pyrazol-4-yl]amino]-[1,2,4]triazolo[1,5-a]pyridin-8-yl]-4-piperidyl]acetonitrile]
19 | 2.9 nM | 0.67 nM | CSc1ccc(C2(CC#N)CCN(c3cccn4nc(Nc5cnn(CCN6CCN(C(=O)N(C)C)CC6)c5)nc34)CC2)cc1 [Q, 4-[2-[4-[[8-[4-(cyanomethyl)-4-(4-methylsulfanylphenyl)-1-piperidyl]-[1,2,4]triazolo[1,5-a]pyridin-2-yl]amino]pyrazol-1-yl]ethyl]-N,N-dimethyl-piperazine-1-carboxamide]
20 | 2.9 nM | 1.4 nM | CSc1ccc(C2(CO)CCN(c3cccn4nc(Nc5cnn(CCN)c5)nc34)CC2)cc1 [R, [1-[2-[[1-(2-aminoethyl)pyrazol-4-yl]amino]-[1,2,4]triazolo[1,5-a]pyridin-8-yl]-4-(4-methylsulfanylphenyl)-4-piperidyl]methanol]
21 | 0.9 nM | 0.57 nM | CCc1cnn(C2(CC#N)CN(c3cccn4nc(Nc5cnn(Cc6cn(C7CCN(C8COC8)CC7)nn6)c5)nc34)C2)c1 [S, 2-[3-(4-ethylpyrazol-1-yl)-1-[1-[[1-[[1-[1-(oxetan-3-yl)-4-piperidyl]triazol-4-yl]methyl]pyrazol-4-yl]amino]-[1,2,4]triazolo[1,5-a]pyridin-8-yl]azetidin-3-yl]acetonitrile]
